Laboratory results taken from US12370164B2, “Chlorogenic acid composition for promoting a healthy body weight” (Vidya Herbs, Inc., priority 2017, dated 2025).
Where “and” joins values, the source holds several entries; their conditions need not be identical. Identical values can stand only once.

Legend:
[1] = tested on: Salmonella typhimurium TA 100; format: cell-based; conditions: TA 100, +s9, positive control, concentration not given
Excerpt: This assay helps to identify substances that can produce genetic damage that leads to gene mutations. Mutant strains of Salmonella typhimurium that are used in AMES assay cannot synthesize histidine, and are very susceptible to additional mutations because they lack the normal repair mechanisms found in bacteria. These mutant strains are more permeable than wild-type bacteria to external chemicals, including potential mutagens. In order for these cells to survive on a plate that lacks histidine, they must regain the ability to synthesize histidine by undergoing another mutation that corrects the original mutation that prevented the production of the missing enzyme. This type of mutation is known as a back mutation, or reversion, because this second mutation returns the mutant to the wild-type (prototrophic) phenotype. This reversion can happen spontaneously due to incorrect DNA replication or as the result of a mutagen.
In this assay specific strains of the bacteria Salmonella typhimurium (TA 98, TA 100) were used to detect mutations. […]
Briefly, 0.5 ml of S9 mix (or 0.1 M phosphate buffer, pH 7.4), 0.1 ml of bacterial culture and 0.1 ml of test solution (or solvent) were added to each tube. […] After incubation for approximately 48 h the revertant colonies were counted.

[2] = tested on: Salmonella typhimurium TA 98; assay: Ames Salmonella mutagenicity test, strain TA 98; format: cell-based; conditions: TA 98, +s9, positive control, concentration not given
[3] = DPPH radical scavenging assay
Method: The free radical scavenging capacity of the test sample was determined using DPPH scavenging assay. DPPH solution was prepared in 95% methanol. Freshly prepared DPPH solution was taken in test tubes and different concentration of test samples were added and incubated for 20 min. The absorbance was read at 517 nm using a spectrophotometer. Blank was prepared containing the same volume of reaction mixture without any tested samples. The percentage of scavenging was calculated using the formula: % Scavenging=Ac−As/Ac×100 Where AC was the absorbance of the control (blank) and AS was the absorbance in the presence of the composition (Braca et al., 2001). Results

[4] = Superoxide anion scavenging activity
Method: Prepared all the solutions in this experiment using phosphate buffer (pH 7.4). Added 1 ml of NBT (156 μM), 1 ml of NADH (468 μM) and 3 ml of test samples to all test tubes. The reaction was started by adding 100 ml of PMS (60 μM) and incubated the mixture at 25° C. for 5 min followed by measurement of absorbance at 560 nm. The percentage of scavenging was calculated using formula: % Scavenging=Ac−As/Ac×100 Where AC was the absorbance of the control (blank) and As was the absorbance in the presence of the composition.

[5] = tested on: calf thymus DNA; assay: Protective effect on DNA scission induced by hydroxyl radical
Method: In this assay hydroxyl radicals are typically generated within a mixture of ascorbic acid, H2O2 and Fe3+-ethylenediaminetetracetic acid (EDTA); those radicals that are not scavenged by other components of the reaction mixture will eventually attack deoxyribose, thus degrading it into a series of fragments.
The experiment was conducted using calf thymus DNA. Briefly, the sample was dissolved in ethanol at 1 mg/mL. 50 μl of different concentration of sample was then separately taken into mini tubes followed by addition of 400 μL of phosphate buffer (0.2 mol/L, pH 7.4). Subsequently, 50 μL DNA sodium, 50 μL H2O2, 50 μL FeCl3 and 50 μL Na2EDTA (1 mmol/L) were added. The reaction was initiated by adding 50 μL ascorbic acid (18 mmol/L) and the total volume of the reaction mixture was adjusted to 800 μL with buffer. After incubation in a water bath at 55° C. for 20 min, the reaction was terminated by adding 250 μL TCA.
The color was then developed by addition of 150 μL of TBA and heating in an oven at 105° C. for 15 min. The mixture was cooled and absorbance was measured at 532 nm against the buffer (as blank). The percent of protection against DNA damage is expressed Protective effect %=(1−A/A0)×100 Where A0 is the absorbance of the mixture without sample, and A is the absorbance of the mixture with sample. Results

SMILES: Nc1ccc2cc3ccccc3cc2c1 [2AF, 2-aminoanthracene]
- Revertant colonies/plate [1]: 2737 ± 4.9 colonies/plate
- Revertant colonies/plate [2]: 1560 ± 3.53 colonies/plate

SMILES: O=C1O[C@H]([C@@H](O)CO)C(O)=C1O [Ascorbic acid]
- % inhibition (DPPH scavenging) ([3]; 20 μg/ml): 83.21%
- Absorbance @517 nm ([3]; 20 μg/ml): 0.046
- % inhibition (DPPH scavenging) ([3]; 40 μg/ml): 90.88%
- Absorbance @517 nm ([3]; 40 μg/ml): 0.025
- % inhibition (DPPH scavenging) ([3]; 60 μg/ml): 94.53%
- Absorbance @517 nm ([3]; 60 μg/ml): 0.015
- % inhibition (DPPH scavenging) ([3]; 80 μg/ml): 94.89%
- Absorbance @517 nm ([3]; 80 μg/ml): 0.014
- % inhibition (DPPH scavenging) ([3]; 100 μg/ml): 96.72%
- Absorbance @517 nm ([3]; 100 μg/ml): 0.009
- % inhibition (DPPH scavenging) ([3]; 100 μg/ml, listed as ascorbic acid): 96.71%
- % inhibition (superoxide scavenging) ([4]; 20 μg/ml): 84.80%
- Absorbance @517 nm (superoxide scavenging) ([4]; 20 μg/ml): 0.038
- % inhibition (superoxide scavenging) ([4]; 40 μg/ml): 85.20%
- Absorbance @517 nm (superoxide scavenging) ([4]; 40 μg/ml): 0.037
- % inhibition (superoxide scavenging) ([4]; 60 μg/ml): 88.40%
- Absorbance @517 nm (superoxide scavenging) ([4]; 60 μg/ml): 0.029
- % inhibition (superoxide scavenging) ([4]; 80 μg/ml): 89.20%
- Absorbance @517 nm (superoxide scavenging) ([4]; 80 μg/ml): 0.027
- % inhibition (superoxide scavenging) ([4]; 100 μg/ml): 89.60%
- Absorbance @517 nm (superoxide scavenging) ([4]; 100 μg/ml): 0.026

SMILES: COc1ccc(O)c(C(C)(C)C)c1 [BHA]
- % protective effect against DNA damage ([5]; 10 μg/ml): 15.79 ± 0.89%
- % protective effect against DNA damage ([5]; 20 μg/ml): 19.25 ± 1.09%
- % protective effect against DNA damage ([5]; 40 μg/ml): 32.50 ± 2.12%
- % protective effect against DNA damage ([5]; 60 μg/ml): 39.16 ± 0.33%
- % protective effect against DNA damage ([5]; 80 μg/ml): 43.04 ± 0.29%
- % protective effect against DNA damage ([5]; 100 μg/ml): 51.37% and 51.37 ± 4.06%
